According to US20220306630A1, “AGONISTS OF ROR GAMMAt” (BRISTOL-MYERS SQUIBB COMPANY, priority 2019, published 2022):

What follows are compounds tested against T1, RORgT (Homo sapiens, UniProt P51449) (assay: RORgT Gal4 Luciferase Reporter Gene Assay). Settings: engineered Jurkat cells overexpressing RORgT (LBD or full length) with Gal4 Luc reporter; 18 hours at 37° C.; 40 μM to 0.67 nM; read-out: RORg_GAL4 EC50.
T1 construct: Gal4 (fusion partner); expressed in transfected cells; host or cells: engineered Jurkat cells (Jurkat pEx/Gal/hRORγ CLBD/HYG pG5luc/blast)
T1 sequence (P51449 267-516): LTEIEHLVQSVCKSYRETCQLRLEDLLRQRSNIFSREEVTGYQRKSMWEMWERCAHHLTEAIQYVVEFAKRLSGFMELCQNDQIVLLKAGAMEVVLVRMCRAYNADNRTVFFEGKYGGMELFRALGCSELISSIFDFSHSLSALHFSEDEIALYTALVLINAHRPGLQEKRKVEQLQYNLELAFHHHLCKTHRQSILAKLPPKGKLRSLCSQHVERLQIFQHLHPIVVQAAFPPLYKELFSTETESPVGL
Type: cell-based
Method in brief: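 Cells exposed to compound 18 hours at 37° C, then lysed for luciferase luminescence. Inhibition of constitutive activity expressed as percent reduction of signal window relative to a control compound.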

Row | EC50 [nM] | Compound
1 | 245 | CCS(=O)(=O)N[C@@H]1CCCN(CC(=O)Nc2cc(Cl)c(Oc3ccc(OC)c(C(C)C)c3)c(Cl)c2)C1 [Example 167]
2 | 270 | COc1ccc(Oc2c(Cl)cc(NC(=O)CN3CCC[C@H](NS(C)(=O)=O)C3)cc2Cl)cc1C(C)C [Example 168]
3 | 93 | COc1ccc(Oc2c(Cl)cc(NC(=O)CN3CCC(NS(C)(=O)=O)CC3)cc2Cl)cc1C(C)C [Example 169]
4 | 370 | COc1ccc(Oc2c(Cl)cc(NC(=O)CN3CC[C@H](NS(=O)(=O)C4CC4)C3)cc2Cl)cc1C(C)C [Example 170]
5 | 2590 | COc1ccc(Oc2c(Cl)cc(NC(=O)CN3CCC[C@@H](NS(C)(=O)=O)C3)cc2Cl)cc1C(C)C [Example 171]
6 | 49 | CCS(=O)(=O)N[C@H]1CCCN(CC(=O)Nc2cc(Cl)c(Oc3ccc(OC)c(C(C)C)c3)c(Cl)c2)C1 [Example 172]
7 | 265 | CCS(=O)(=O)NC1CCN(CC(=O)Nc2cc(Cl)c(Oc3ccc(OC)c(C(C)C)c3)c(Cl)c2)CC1 [Example 173]
8 | 286 | COc1ccc(Oc2c(Cl)cc(NC(=O)CN3CC(NS(=O)(=O)C4CC4)C3)cc2Cl)cc1C(C)C [Example 174]
9 | 345 | COc1ccc(Oc2c(Cl)ccc(CNC(=O)CC3CCN(C(=O)C(F)(F)F)CC3)c2Cl)cc1C(C)C [Example 175]
10 | 83 | COc1ccc(Oc2c(Cl)ccc(C(=O)N3CCC(c4ccccc4)CC3)c2Cl)cc1C(C)C [Example 176]
11 | 336 | COc1ccc(Oc2c(Cl)ccc(C(=O)NCCc3nc4ccccc4s3)c2Cl)cc1C(C)C [Example 178]
12 | 1130 | COc1ccc(Oc2c(Cl)ccc(C(=O)N3CCc4ccccc4C3)c2Cl)cc1C(C)C [Example 179]
13 | 325 | COc1ccc(Oc2c(Cl)ccc(C(=O)N3CCC(O)(c4ccccc4)CC3)c2Cl)cc1C(C)C [Example 180]
14 | 214 | COc1ccc(Oc2c(Cl)ccc(C(=O)n3nc(C)cc3CN)c2Cl)cc1C(C)C [Example 181]
15 | 355 | COCCN(C)C(=O)c1ccc(Cl)c(Oc2ccc(OC)c(C(C)C)c2)c1Cl [Example 182]
16 | 284 | COCCNC(=O)c1ccc(Cl)c(Oc2ccc(OC)c(C(C)C)c2)c1Cl [Example 183]
17 | 246 | COc1ccc(Oc2c(Cl)ccc(C(=O)N3CCCCC3)c2Cl)cc1C(C)C [Example 184]
18 | 28 | CCS(=O)(=O)N1CCN(CC(=O)NCc2ccc(Cl)c(Oc3ccc(OC)c(C(C)C)c3)c2Cl)CC1 [Example 185]
19 | 90 | COc1ccc(Oc2c(Cl)ccc(CNC(=O)CN3CCN(S(C)(=O)=O)CC3)c2Cl)cc1C(C)C [Example 186]
20 | 522 | CCS(=O)(=O)N1CCC(CC(=O)NCc2ccc(Cl)c(Oc3ccc(OC)c(C(C)C)c3)c2Cl)CC1 [Example 187]
21 | 383 | COc1ccc(Oc2c(Cl)ccc(CNC(=O)COC3CCN(S(C)(=O)=O)CC3)c2Cl)cc1C(C)C [Example 188]
22 | 40 | COc1ccc(Oc2c(Cl)ccc(C(=O)N3CCC(O)CC3)c2Cl)cc1C(C)C [Example 189]
23 | 989 | CCS(=O)(=O)N1CC2(CN(CC(=O)Nc3cc(Cl)c(Oc4ccc(OC)c(C(C)C)c4)c(Cl)c3)C2)C1 [Example 190]
24 | 128 | COc1ccc(Oc2c(Cl)ccc(C(=O)N3CCC(c4ccc(Cl)cc4)CC3)c2Cl)cc1C(C)C [Example 191]

Row | EC50 [nM] | Compound
25 | 89 | COc1ccc(Oc2c(Cl)ccc(C(=O)N3CCC(N(C)C)CC3)c2Cl)cc1C(C)C [Example 192]
26 | 866 | COc1ccc(Oc2c(Cl)ccc(C(=O)NC3CCN(Cc4ccccc4)C3)c2Cl)cc1C(C)C (stereo not drawn) [Example 193]
27 | 6460 | COc1ccc(Oc2c(Cl)ccc(C(=O)NCc3ccccn3)c2Cl)cc1C(C)C [Example 194]
28 | 616 | COc1ccc(Oc2c(Cl)ccc(C(=O)NCc3ccc(N(C)C)cc3)c2Cl)cc1C(C)C [Example 195]
29 | 200 | COc1ccc(Oc2c(Cl)ccc(C(=O)N3CCN(C)CC3)c2Cl)cc1C(C)C [Example 196]
30 | 860 | COc1ccc(Oc2c(Cl)ccc(C(=O)NC3CCC(O)CC3)c2Cl)cc1C(C)C (stereo not drawn) [Example 197]
31 | 872 | COc1ccc(Oc2c(Cl)ccc(C(=O)NCc3cccc(Cl)c3)c2Cl)cc1C(C)C [Example 198]
32 | 3890 | COc1ccc(Oc2c(Cl)ccc(C(=O)NCCc3ccccc3Cl)c2Cl)cc1C(C)C [Example 199]
33 | 330 | COc1ccc(Oc2c(Cl)ccc(C(=O)NCc3ccccc3Cl)c2Cl)cc1C(C)C [Example 200]
34 | 511 | COc1ccc(Oc2c(Cl)ccc(C(=O)NCC#N)c2Cl)cc1C(C)C [Example 201]
35 | 4490 | COc1ccc(Oc2c(Cl)ccc(C(=O)Nc3cccnc3)c2Cl)cc1C(C)C [Example 202]
36 | 129 | COc1ccc(Oc2c(Cl)ccc(C(=O)N3CCN(C(C)=O)CC3)c2Cl)cc1C(C)C [Example 203]
37 | 40 | COc1ccc(Oc2c(Cl)ccc(C(=O)NC(C)c3cn(C)nc3C)c2Cl)cc1C(C)C (stereo not drawn) [Example 204]
38 | 564 | COc1ccc(Oc2c(Cl)ccc(C(=O)NCc3cc(C)no3)c2Cl)cc1C(C)C [Example 205]
39 | 100 | COc1ccc(Oc2c(Cl)ccc(C(=O)NCc3cnc(C)cn3)c2Cl)cc1C(C)C [Example 206]
40 | 63 | COc1ccc(Oc2c(Cl)ccc(C(=O)Nc3cccc4cnccc34)c2Cl)cc1C(C)C [Example 207]
41 | 508 | COc1ccc(Oc2c(Cl)ccc(C(=O)NCCO)c2Cl)cc1C(C)C [Example 208]
42 | 659 | CCCCNC(=O)c1ccc(Cl)c(Oc2ccc(OC)c(C(C)C)c2)c1Cl [Example 209]
43 | 105 | COc1ccc(Oc2c(Cl)ccc(C(=O)N3CCCC3)c2Cl)cc1C(C)C [Example 210]
44 | 46 | COc1ccc(Oc2c(Cl)ccc(C(=O)N3CCOCC3)c2Cl)cc1C(C)C [Example 211]
45 | 11 | CCS(=O)(=O)N1CCC(C(=O)NCc2ccc(Cl)c(Oc3ccc(OC)c(C(C)C)c3)c2Cl)CC1 [Example 212]
46 | 19 | COc1ccc(Oc2c(Cl)ccc(CNC(=O)C3CCN(S(C)(=O)=O)CC3)c2Cl)cc1C(C)C [Example 213]
47 | 434 | COc1ccc(Oc2c(Cl)ccc(C(=O)N3CCN(c4ccccc4)CC3)c2Cl)cc1C(C)C [Example 214]
48 | 37 | COc1ccc(Oc2c(Cl)ccc(C(=O)Nc3ccccc3CC#N)c2Cl)cc1C(C)C [Example 215]

Row | EC50 [nM] | Compound
49 | 813 | COc1ccc(Oc2c(Cl)ccc(C(=O)NCC3CCOCC3)c2Cl)cc1C(C)C [Example 216]
50 | 45 | COc1ccc(Oc2c(Cl)ccc(C(=O)NC(C)c3ccnn3C)c2Cl)cc1C(C)C (stereo not drawn) [Example 217]
51 | 328 | COc1ccc(Oc2c(Cl)ccc(C(=O)NCCc3ncn[nH]3)c2Cl)cc1C(C)C [Example 218]
52 | 1500 | COc1ccc(Oc2c(Cl)ccc(C(=O)NCCc3ccc(S(N)(=O)=O)cc3)c2Cl)cc1C(C)C [Example 219]
53 | 560 | COc1ccc(Oc2c(Cl)ccc(C(=O)NCCNC(C)=O)c2Cl)cc1C(C)C [Example 221]
54 | 225 | COc1ccc(Oc2c(Cl)ccc(CNC(=O)CC3CCN(S(C)(=O)=O)CC3)c2Cl)cc1C(C)C [Example 222]
55 | 1110 | CCS(=O)(=O)N1CCC(OCC(=O)NCc2ccc(Cl)c(Oc3ccc(OC)c(C(C)C)c3)c2Cl)CC1 [Example 223]
56 | 732 | COc1ccc(Oc2c(Cl)ccc(CNC(=O)CCC3CCN(S(C)(=O)=O)CC3)c2Cl)cc1C(C)C [Example 224]
57 | 920 | COc1ccc(Oc2c(Cl)ccc(C(=O)NCC3CCCC(O)C3)c2Cl)cc1C(C)C (stereo not drawn) [Example 225]
58 | 286 | COc1ccc(Oc2c(Cl)ccc(C(=O)NCC3CCCC(O)C3)c2Cl)cc1C(C)C (stereo not drawn) [Example 226]
59 | 109 | COc1ccc(Oc2c(Cl)ccc(C(=O)NCc3ccc(=O)[nH]c3)c2Cl)cc1C(C)C [Example 227, 2,4-dichloro-3-[4-methoxy-3-(propan-2-yl)phenoxy]-N-[(6-oxo-1,6-dihydropyridin-3-yl)methyl]benzamide]
60 | 102 | COc1ccc(Oc2c(Cl)ccc(C(=O)NCc3ccc(C#N)cc3)c2Cl)cc1C(C)C [Example 228]
61 | 891 | COc1ccc(Oc2c(Cl)cc(NC(=O)CN3CC4(C3)CN(S(=O)(=O)C3CC3)C4)cc2Cl)cc1C(C)C [Example 229]
62 | 373 | COc1ccc(Oc2c(Cl)ccc(C(=O)N3CCN(c4ccc(Cl)cc4)CC3)c2Cl)cc1C(C)C [Example 230]
63 | 26 | COc1ccc(Oc2c(Cl)cc(NC(=O)Cc3cccc(S(C)(=O)=O)c3)cc2Cl)cc1C(C)C [Example 231]
64 | 285 | COc1ccc(Oc2c(Cl)cc(NC(=O)Nc3cccnc3)cc2Cl)cc1C(C)C [Example 232]
65 | 319 | COc1ccc(Oc2c(Cl)cc(NC(=O)OCC(C)(C)C#N)cc2Cl)cc1C(C)C [Example 233]
66 | 635 | COc1ccc(Oc2c(Cl)cc(NC(=O)NCCS(N)(=O)=O)cc2Cl)cc1C(C)C [Example 234]
67 | 1270 | COc1ccc(Oc2c(Cl)cc(NC(=O)OCCn3ccnc3)cc2Cl)cc1C(C)C [Example 235]
68 | 597 | COc1ccc(Oc2c(Cl)cc(NC(=O)N3CCOCC3)cc2Cl)cc1C(C)C [Example 236]
69 | 235 | COc1ccc(Oc2c(Cl)cc(NC(=O)Cc3ccc[n+]([O-])c3)cc2Cl)cc1C(C)C [Example 237]
70 | 752 | COc1ccc(Oc2c(Cl)cc(NC(=O)Cc3ccnc(N)c3)cc2Cl)cc1C(C)C [Example 238]
71 | 170 | COc1ccc(Oc2c(Cl)cc(NC(=O)Cc3cncc(Cl)n3)cc2Cl)cc1C(C)C [Example 239]
72 | 99 | COc1ccc(Oc2c(Cl)cc(NC(=O)Cc3cccnc3S(C)(=O)=O)cc2Cl)cc1C(C)C [Example 240]
